These results are taken from patent US8501940B2, “Tetrahydrocinnoline derivatives” (Hoffmann-La Roche Inc., priority 2008, dated 2013).

The structures appear in SMILES notation.

The target in the experiment is T1, human 11beta-HSD1 (Homo sapiens, UniProt P28845).
T1 construct: made in house; host or cells: HEK293 cells (ATCC CRL-1573), transient transfection with a pcDNA3 construct; microsomal fraction used
Briefly: Microsome assay (cortisone to cortisol conversion, ELISA detection). Type of experiment: biochemical. To be noted: microsomes from HEK293 cells transiently expressing human 11beta-HSD1; Cortisone 50-200 nM, NADPH 1 mM; 60 min at 37° C.; cortisol by ELISA; read-out: h 11-beta-HSD 1 IC50. The procedure:
The cDNA encoding the human 11beta-HSD1 protein was cloned into the expression vector pcDNA3 (Stratagene). This construct (for details see Alex Odermatt et al.; J Biol Chem., 1999, Vol. 274, Issue 40, 28762-28770) was used to transiently express the protein in HEK293 cells (ATCC number: CRL-1573, described in Graham, F. L., Smiley, J., Russell, W. C., Nairn, R.; (1977)) using lipofectamine. 48 h after transfection cells were washed twice with ice-cold PBS (Phosphate buffered Saline). To 1 volume of cell suspension in PBS 2 volumes of ice-cold lysis buffer (50 mM Tris; pH7.5; 1 mM EDTA; 100 mM NaCl) were added. The cells were lysed by Potter-homogenization (20 strokes). The resulting homogenate was sonicated with a tip sonicator (10% output; 2×30 sec.) and cleared by a low speed centrifugation (10 min×9000 g; 4° C.). The microsomal fraction was collected by a high speed centrifugation (60 min×110,000 g). The resulting pellet was resuspended in storage buffer (20 mM Tris pH 7.5; 1 mM EDTA; 10% Glycerol) and the centrifugation was repeated. The resulting pellet containing the microsomal fraction was again taken up into storage buffer and aliquots were kept frozen in liquid Nitrogen until use.
Microsomes isolated from HEK293 cells transiently expressing human 11beta-HSD1 (for details see above) were incubated in assay buffer (100 mM NaCl; 1 mM EDTA; 1 mM EGTA; 1 mM MgCl; 250 mM Sucrose; 20 mM Tris pH 7.4; Cortisone 50-200 nM and NADPH 1 mM) together with different concentrations of test substances. After 60 min. of incubation at 37° C. the assay was stopped by heating to 80° C. (5 min.) and by addition of the inhibitor Carbenoxolone (1 uM). The amount of Cortisol produced in this assay was determined using a commercially available, ELISA-based Cortisol-detection kit (Distributed by Assay Design, Inc.). Inhibitors were characterized by there IC50 values, e.g. the concentration at which the production of cortisol was 50% reduced.
A general note: An ELISA detects its analyte on a solid surface through an enzyme-linked reagent.

One may read the IC50 as the concentration needed to halve the response being measured.

T1 sequence (P28845 whole entry): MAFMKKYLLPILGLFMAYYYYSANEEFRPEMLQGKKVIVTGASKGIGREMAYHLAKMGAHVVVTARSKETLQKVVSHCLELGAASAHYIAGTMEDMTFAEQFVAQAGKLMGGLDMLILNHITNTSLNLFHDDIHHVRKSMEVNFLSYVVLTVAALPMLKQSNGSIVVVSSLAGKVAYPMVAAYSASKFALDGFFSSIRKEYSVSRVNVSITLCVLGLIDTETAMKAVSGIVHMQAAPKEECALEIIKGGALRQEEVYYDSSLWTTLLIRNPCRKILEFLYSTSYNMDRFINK

With `CC1(Cc2cc3c(nn2)[C@H]2CC[C@@H]3C2(C)C)CC1` (racemic) [Example 16, (5RS,8SR)-9,9-dimethyl-3-[(1-methylcyclopropyl)methyl]-5,6,7,8-tetrahydro-5,8-methanocinnoline], the IC50 came out at 1 pM.

With `CC1(Cc2cc3c(nn2)[C@H]2CC[C@@H]3C2)CC1` (racemic) [Example 18, (5RS,8SR)-3-[(1-methylcyclopropyl)methyl]-5,6,7,8-tetrahydro-5,8-methanocinnoline], the IC50 turned out to be 37 pM.

For `CC(C)(C)Cc1cc2c(nn1)C1CCC2C12CC2` (single isomer, unassigned) [Example 1b, (5′S,8′R)-3′-(2,2-dimethylpropyl)-5′,6′,7′,8′-tetrahydrospiro[cyclopropane-1,9′-[1′,2′]diaza[5′,8′]methanocinnoline]], the IC50 turned out to be 1 pM.

For `CC(C)(C)c1cc2c(nn1)C1CCC2C12CC2` (single isomer, unassigned) [Example 2a, (5′R,8′S)-3′-tert-butyl-5′,6′,7′,8′-tetrahydrospiro[cyclopropane-1,9′-[1′,2′]diaza[5′,8′]methanocinnoline]], the IC50 was 11 pM.

Turning to `CC(C)(C)c1cc2c(nn1)C1CCC2C12CC2` (single isomer, unassigned) [Example 2b, (5′S,8′R)-3′-tert-butyl-5′,6′,7′,8′-tetrahydrospiro[cyclopropane-1,9′-[1′,2′]diaza[5′,8′]methanocinnoline]], the IC50 worked out at 13 pM.

`c1c(C2CC2)nnc2c1C1CCC2C12CC2` (single isomer, unassigned) [Example 5a, (5′R,8′S)-3′-cyclopropyl-5′,6′,7′,8′-tetrahydrospiro[cyclopropane-1,9′-[1′,2′]diaza[5′,8′]methanocinnoline]]: the IC50 was 566 pM.

On to `CC(C)(C)Cc1cc2c(nn1)C1CCC2C12CC2` (stereo not drawn) [Example 1, (5′RS,8′SR)-3′-(2,2-dimethylpropyl)-5′,6′,7′,8′-tetrahydrospiro[cyclopropane-1,9′-[1′,2′]diaza[5′,8′]methanocinnoline]], for which the IC50 was 3 pM.

With `CC(C)(C)Cc1cc2c(nn1)[C@H]1CC[C@@H]2C12CC2` [Example 1a, (5′R,8′S)-3′-(2,2-dimethylpropyl)-5′,6′,7′,8′-tetrahydrospiro[cyclopropane-1,9′-[1′,2′]diaza[5′,8′]methanocinnoline]], the IC50 worked out at 4 pM.

On to `CC(C)(C)c1cc2c(nn1)C1CCC2C12CC2` (stereo not drawn) [Example 2, (5′RS,8′SR)-3′-tert-butyl-5′,6′,7′,8′-tetrahydrospiro[cyclopropane-1,9′-[1′,2′]diaza[5′,8′]methanocinnoline]], for which the IC50 turned out to be 20 pM.

For `CC1(Cc2cc3c(nn2)C2CCC3C23CC3)CC1` (stereo not drawn) [Example 3, (5′RS,8′SR)-3′-[(1-methylcyclopropyl)methyl]-5′,6′,7′,8′-tetrahydrospiro[cyclopropane-1,9′-[1′,2′]diaza[5′,8′]methanocinnoline]], the IC50 is 6 pM.

For `CC1(c2cc3c(nn2)C2CCC3C23CC3)CC1` (stereo not drawn) [Example 4, (5′RS,8′SR)-3′-(1-methylcyclopropyl)-5′,6′,7′,8′-tetrahydrospiro[cyclopropane-1,9′-[1′,2′]diaza[5′,8′]methanocinnoline]], the IC50 came out at 58 pM.

`c1c(C2CC2)nnc2c1C1CCC2C12CC2` (stereo not drawn) [Example 5, (5′RS,8′SR)-3′-cyclopropyl-5′,6′,7′,8′-tetrahydrospiro[cyclopropane-1,9′-[1′,2′]diaza[5′,8′]methanocinnoline]]: the IC50 was found to be 603 pM.

Consider `c1c(C2CC2)nnc2c1[C@H]1CC[C@@H]2C12CC2` [Example 5b, (5′S,8′R)-3′-cyclopropyl-5′,6′,7′,8′-tetrahydrospiro[cyclopropane-1,9′-[1′,2′]diaza[5′,8′]methanocinnoline]], for which the IC50 was 382 pM.

As to `Cc1c(C2CC2)nnc2c1C1CCC2C12CC2` (stereo not drawn) [Example 6, (5′RS,8′SR)-3′-cyclopropyl-4′-methyl-5′,6′,7′,8′-tetrahydrospiro[cyclopropane-1,9′-[1′,2′]diaza[5′,8′]methanocinnoline]], the IC50 turned out to be 35 pM.

`c1c(C2CC2)nnc2c1C1CCC2CC1` [Example 7, 3-Cyclopropyl-5,6,7,8-tetrahydro-5,8-ethanocinnoline]: the IC50 is 47 pM.

As to `CC1(Cc2cc3c(nn2)C2CCC3CC2)CC1` [Example 8, 3-[(1-Methylcyclopropyl)methyl]-5,6,7,8-tetrahydro-5,8-ethanocinnoline], the IC50 turned out to be 6 pM.

Take `CC(C)(C)Cc1cc2c(nn1)C1CCC2CC1` [Example 9, 3-(2,2-Dimethylpropyl)-5,6,7,8-tetrahydro-5,8-ethanocinnoline]: the IC50 is 1 pM.

Regarding `CC(C)(C)c1cc2c(nn1)C1CCC2CC1` [Example 10, 3-Tert-butyl-5,6,7,8-tetrahydro-5,8-ethanocinnoline], the IC50 was 2 pM.

On to `CC1(c2cc3c(nn2)C2CCC3C23CCCC3)CC1` (stereo not drawn) [Example 11, (5′RS,8′SR)-3′-(1-methylcyclopropyl)-5′,6′,7′,8′-tetrahydrospiro[cyclopentane-1,9′-[1′,2′]diaza[5′,8′]methanocinnoline]], for which the IC50 is 2 pM.

With `CC1(Cc2cc3c(nn2)C2CCC3C23CCCC3)CC1` (stereo not drawn) [Example 12, (5′RS,8′SR)-3′-[(1-methylcyclopropyl)methyl]-5′,6′,7′,8′-tetrahydrospiro[cyclopentane-1,9′-[1′,2′]diaza[5′,8′]methanocinnoline]], the IC50 is 1 pM.

In the case of `CC(C)(C)Cc1cc2c(nn1)C1CCC2C12CCCC2` (stereo not drawn) [Example 13, (5′RS,8′SR)-3′-(2,2-dimethylpropyl)-5′,6′,7′,8′-tetrahydrospiro[cyclopentane-1,9′-[1′,2′]diaza[5′,8′]methanocinnoline]], the IC50 amounted to 1 pM.

With `CC(C)(C)c1cc2c(nn1)C1CCC2C12CCCC2` (stereo not drawn) [Example 14, (5′RS,8′SR)-3′-tert-butyl-5′,6′,7′,8′-tetrahydrospiro[cyclopentane-1,9′-[1′,2′]diaza[5′,8′]methanocinnoline]], the IC50 stood at 2 pM.

With `c1c(C2CC2)nnc2c1C1CCC2C12CCCC2` (stereo not drawn) [Example 15, (5′RS,8′SR)-3′-cyclopropyl-5′,6′,7′,8′-tetrahydrospiro[cyclopentane-1,9′-[1′,2′]diaza[5′,8′]methanocinnoline]], the IC50 is 13 pM.

As for `CC1(Cc2cc3c(nn2)[C@@]2(C)CC[C@@H]3C2(C)C)CC1` [Example 17, (5R,8S)-8,9,9-trimethyl-3-[(1-methylcyclopropyl)methyl]-5,6,7,8-tetrahydro-5,8-methanocinnoline], the IC50 came out at 1 pM.

On to `Fc1ccc(-c2cc3c(nn2)C2CCC3C23CC3)c(C(F)(F)F)c1` (stereo not drawn) [Example 19, (5′RS,8′SR)-3′-[4-fluoro-2-(trifluoromethyl)phenyl]-5′,6′,7′,8′-tetrahydrospiro[cyclopropane-1,9′-[1′,2′]diaza[5′,8′]methanocinnoline]], for which the half-inhibitory concentration (IC50) was 2 pM.

Consider `Cc1c(-c2cc3c(nn2)C2CCC3C23CC3)cnn1-c1ccccc1` (stereo not drawn) [Example 20, (5′RS,8′SR)-3′-(5-methyl-1-phenyl-1H-pyrazol-4-yl)-5′,6′,7′,8′-tetrahydrospiro[cyclopropane-1,9′-[1′,2′]diaza[5′,8′]methanocinnoline]], for which the IC50 was 89 pM.

Take `Fc1ccc(-c2cc3c(nn2)C2CCC3C23CC3)c(Cl)c1` (stereo not drawn) [Example 21, (5′RS,8′SR)-3′-(2-chloro-4-fluorophenyl)-5′,6′,7′,8′-tetrahydrospiro[cyclopropane-1,9′-[1′,2′]diaza[5′,8′]methanocinnoline]]: the IC50 was determined as 7 pM.

For `FC(F)(F)c1ccccc1-c1cc2c(nn1)C1CCC2C12CC2` (stereo not drawn) [Example 22, (5′RS,8′SR)-3′-[2-(trifluoromethyl)phenyl]-5′,6′,7′,8′-tetrahydrospiro[cyclopropane-1,9′-[1′,2′]diaza[5′,8′]methanocinnoline]], the IC50 came to 1 pM.

As to `Cc1c(-c2cc3c(nn2)C2CCC3C23CC3)cnn1C(C)(C)C` (stereo not drawn) [Example 23, (5′RS,8′SR)-3′-(1-tert-butyl-5-methyl-1H-pyrazol-4-yl)-5′,6′,7′,8′-tetrahydrospiro[cyclopropane-1,9′-[1′,2′]diaza[5′,8′]methanocinnoline]], the IC50 is 95 pM.

In the case of `FC(F)(F)c1ccc(Cl)cc1-c1cc2c(nn1)C1CCC2C12CC2` (stereo not drawn) [Example 24, (5′RS,8′SR)-3′-[5-chloro-2-(trifluoromethyl)phenyl]-5′,6′,7′,8′-tetrahydrospiro[cyclopropane-1,9′-[1′,2′]diaza[5′,8′]methanocinnoline]], the IC50 was found to be 40 pM.

For `Fc1ccc(-c2cc3c(nn2)C2CCC3CC2)c(C(F)(F)F)c1` [Example 25, 3-[4-fluoro-2-(trifluoromethyl)phenyl]-5,6,7,8-tetrahydro-5,8-ethanocinnoline], the IC50 was found to be 1 pM.
